Consider 4 compounds from PMC10451034, “Highly Efficient Photosensitizers with Molecular Vibrational Torsion for Cancer Photodynamic Therapy” (ACS Central Science, 2023).

Series [1] can be described thus: Singlet oxygen quantum yield by DPBF decay curve method. The series is classed as physicochemical. The settings on record: for ΦΔ, singlet oxygen quantum yield: methylene blue as standard, 660 nm irradiation. As to the method:
Afterward, the singlet oxygen yields of the series of molecules were preliminarily measured and analyzed by the 1,3-diphenylisobenzofuran (DPBF) decay curve method (Figures 2d,e and S2). […] Meanwhile, in order to exclude the effect of the rigid structure, ΦΔ of a Cy7-like reference molecule (TCy7C) with a rigidified structure but absence of an oxygen atom was measured. The singlet oxygen yield of TCy7C was 2.2%, even lower than that of TCy7 under the same conditions (Figure S3). […]
(§1) Photoexcited singlet oxygen production was detected by employed 1,3-diphenylisobenzofuran (DPBF) as the indicator. The absorbance of DPBF at 415 nm was regulated to about 1.0 in DCM. And the samples were irradiated with 660 nm light for various times, then the absorption spectra of different time nodes were recorded.
(§2) The singlet oxygen quantum yield (ΦΔ) was calculated by the following equation:
(§3) Where “Φ” represent the singlet oxygen quantum yield , “sam” and “std” represent QTCy7-R and MB, respectively. “m” is the slope of the absorbance of DPBF at 415 nm with time, F=1–10-O.D. (O.D. is the absorbance of samples at 660 nm). […]

Series [2] is described as follows: Triplet lifetime by laser flash photolysis. To be noted: 5 μM in deaerated dichloromethane, λex = 610 nm. It counts as physicochemical.
Source text: To probe the mechanism of the observed phenomenon and further validate our hypothesis, ultrafast excited-state dynamic behaviors were implemented by using femtosecond transient absorption spectroscopy (fs-TA) (Figures 3a and S4a–c). In order to obtain the complete process of excited states, a 350 nm laser was chosen as a pump to populate the high singlet excited states (Sn) from the ground state (S0). […] With the growth of delay time, the ESA of S1 gradually decayed (τ = 7.65 ps); meanwhile, beyond our expectation, accompanied by a particularly noticeable peak at ca. 583 nm increasing promptly, this new emerging ESA peak reached its maximum within about 21.98 ps. Similar phenomena were found in the transient spectra of the other three compounds (Figures S4d–f). However, for the control TCy7, there was no obvious formation of another ESA peak in transient spectra (Figure S5). […] Furthermore, the rate of X state formation was calculated to be 4.54 × 10^10 s^–1 for QTCy7-Ac based on the rise time (kX = 1/τX,rise), which was close to the order of magnitude of the intramolecular distorted vibration behavior. […] Meanwhile, the triplet lifetime of this series of molecules was evaluated and inspected for further applications (Figures 3d and S4g–i). […]
as §1, §2, §3
The triplet life of QTCy7-R was measured by LP980 laser flash photolysis spectrometer (Edinburgh Instruments Ltd.) in combination with a Nd:YAG laser (Surelite I-10, Continuum Electro-Optics, Inc.). […]

The test system of a further series is HepG2 cells. Description: MTT cytotoxicity assay, HepG2. The series is classed as cell-based, human. The settings on record: for IC50: Homo sapiens; for surviving cells: HepG2, dark, concentration around 160 μM. An excerpt: To further quantitatively explore the in vitro anticancer potency of QTCy7-R, the methyl thiazolyltetrazolium (MTT) assay was employed to detect cell viability. […] Next, we evaluated the cytotoxicity under dark conditions of this series of compounds at high concentrations (Figure 9e), as due to the characteristics of mitochondrial accumulation, QTCy7-Me and QTCy7-Ph might lead to mitochondrial depolarization and apoptosis at high concentrations. However, its IC50 value could still reach about 60 μM, which was almost […] than those of all cyanine photosensitizers reported. […] The photocytotoxicity index value (dark IC50/light IC50) of QTCy7-Ac was >500, manifesting that QTCy7-Ac is a PS with high efficacy but low cytotoxicity, which is extremely promising in clinical application. […]
Cytotoxicity was tested by the reduction of methyl thiazolyl tetrazolium to formazan by succinic acid dehydrogenase in the mitochondria of living cells (MTT assay). HepG2 cells, MCF7 cells and 4T1 cells were seeded to 96-well microplates (Nunc, Denmark) with a density of 1 × 10^5 cells/mL cells in 100 μL DMEM medium and incubated at 37 °C for 24 h. When the cell density reached about 70%, the QTCy7-R with different concentrations (4, 3, 2, 1.5, 1, 0.75, 0.5, 0.25, 0 μM) in PBS were added to the wells of cells in dark condition, respectively. For light groups, the cell incubation conditions were the same as those of the dark group and the cells were further incubated for 2 h, subsequently, the cells were subjected to 660 nm irradiation (20 mW/cm2) for different time (10 min, 5 min and 2.5 min) corresponding to different light doses (12 J/cm2, 6 J/cm2 and 3 J/cm2). Then all the cells were incubated for 12 h, after which the MTT solution in DMEM (0.5 mg/ml, 100 μL) was added to each well and the cells were incubated at 37 °C for another 4 h. The MTT solution was carefully removed and 100 μL DMSO was added to dissolve formazan, and the absorbance of each well was measured by a multifunctional microplate reader at 570 nm and 630 nm. The cell viability was obtained by the following equation: […]
Where “OD” represent the absorbance at 570 nm and 630 nm, “ps” and “control” represent experimental groups and control groups, respectively. […]

Where [3] appears, read: HepG2, light or radiation study, HepG2, 660 nm irradiation 12 J/cm^2.

Some results are limits rather than exact numbers.

Usually IC50 stands for the midpoint of a concentration-inhibition curve. On to `CCN1/C(=C/C=C2\C=C(c3ccccc3)C=C(/C=C/c3sc4ccccc4[n+]3CC)C2=O)Sc2ccccc21` [QTCy7-Ph], for which the “ΦΔ, singlet oxygen quantum yield” value in series [1] (in dichloromethane) is reported as 0.212. In addition, the triplet lifetime entry in series [2] was “about 12 μs”. The IC50 is roughly 60 µM in the series with HepG2 cells (HepG2, HepG2, dark conditions) and roughly 0.3 µM with HepG2 cells (setting [3]).

With `CCN1/C(=C/C=C2\C=C(C)C=C(/C=C/c3sc4ccccc4[n+]3CC)C2=O)Sc2ccccc21` [QTCy7-Me], the “ΦΔ, singlet oxygen quantum yield” value in series [1] (in dichloromethane) is listed as 0.225. The triplet lifetime result in series [2] was “about 12 μs”. For the same compound, the IC50 in the series on HepG2 cells (HepG2, HepG2, dark conditions) is roughly 60 µM; in the series with HepG2 cells (setting [3]), roughly 0.9 µM.

With `CCN1/C(=C/C=C2\C=C(C=O)C=C(/C=C/c3sc4ccccc4[n+]3CC)C2=O)Sc2ccccc21` [QTCy7-CHO], in series [1] (in dichloromethane), the “ΦΔ, singlet oxygen quantum yield” value was 0.263. In addition, in series [2], the triplet lifetime result is “about 2 μs”. Besides, the surviving cells in the series on HepG2 cells is 70–80%. In the series with HepG2 cells (setting [3]), this compound returned an IC50 of roughly 1.8 µM.

Take `CCOC(=O)C1=C/C(=C\C=C2/Sc3ccccc3N2CC)C(=O)C(/C=C/c2sc3ccccc3[n+]2CC)=C1` [QTCy7-Ac]: the “ΦΔ, singlet oxygen yield” value in series [1] (in dichloromethane, DPBF method) is 33.8%. The “ΦΔ, singlet oxygen quantum yield” value in series [1] (in dichloromethane) was 0.338. The “singlet oxygen yield relative to TCy7” value in series [1] (under NIR irradiation) turned out to be 13 fold. In addition, in the series with HepG2 cells (HepG2), the “photocytotoxicity index (dark IC50/light IC50)” value is greater than 500. For the same compound, in the series with HepG2 cells, the surviving cells is on record as 70–80%. The IC50 is roughly 2 µM in the series with HepG2 cells (HepG2, light or radiation study, HepG2, 660 nm irradiation 3 J/cm^2); roughly 1.2 µM in the series with HepG2 cells (HepG2, light or radiation study, HepG2, 660 nm irradiation 6 J/cm^2); roughly 0.3 µM in the series with HepG2 cells (setting [3]). The “enhancement compared with commercial Ce6 photosensitizer” value in the series with HepG2 cells (cell destruction at low light doses) was found to be 11 fold.
